Measured values published in PubChem BioAssay AID330 (DTP/NCI, 2004).
Where “and” joins values, the source holds several entries; their conditions need not be identical. Equal entries are not always repeated. Inconclusive results and toxic doses are left out. How the source made its calls: active means survival T/C of 150% or more; inactive means T/C below 125% in these data.

Tested on: P388 leukemia ip, CD2F1 mice, survival T/C
Test: NCI In Vivo Anticancer Drug Screen. Data for tumor model P388 Leukemia (intraperitoneal) in CD2F1 (CDF1) mice
Settings: endpoint: median survival time, higher = longer survival
Outline: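 Mice carrying the transplanted tumor received test compound or vehicle. Survival was recorded in each group, and the value is the treated-group measurement divided by that of the vehicle-treated control group.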

[1] = dose: 50.0 mg/kg/injection, schedule: Q01DX009 (ip), vehicle: saline
[2] = dose: 100.0 mg/kg/injection, schedule: Q01DX009 (ip), vehicle: saline
[3] = dose: 60.0 mg/kg/injection, schedule: Q01DX005 (ip), vehicle: Klucel (hydroxypropylcellulose) (HPC)
[4] = dose: 120.0 mg/kg/injection, schedule: Q01DX005 (ip), vehicle: Klucel (hydroxypropylcellulose) (HPC)
[5] = dose: 240.0 mg/kg/injection, schedule: Q01DX005 (ip), vehicle: Klucel (hydroxypropylcellulose) (HPC)
[6] = dose: 50.0 mg/kg/injection, schedule: Q01DX009 (ip), vehicle: Klucel (hydroxypropylcellulose) (HPC)
[7] = dose: 100.0 mg/kg/injection, schedule: Q01DX009 (ip), vehicle: Klucel (hydroxypropylcellulose) (HPC)
[8] = dose: 200.0 mg/kg/injection, schedule: Q01DX009 (ip), vehicle: Klucel (hydroxypropylcellulose) (HPC)
[9] = dose: 50.0 mg/kg/injection, schedule: Q01DX009 (ip), vehicle: saline with Tween-80
[10] = dose: 100.0 mg/kg/injection, schedule: Q01DX009 (ip), vehicle: saline with Tween-80
[11] = dose: 50.0 mg/kg/injection, schedule: Q04DX003 (ip), vehicle: saline with Tween-80
[12] = dose: 100.0 mg/kg/injection, schedule: Q04DX003 (ip), vehicle: saline with Tween-80
[13] = dose: 25.0 mg/kg/injection, schedule: Q01DX009 (ip), vehicle: saline with Tween-80
[14] = dose: 50.0 mg/kg/injection, schedule: Q01DX005 (ip), vehicle: saline with Tween-80
[15] = dose: 100.0 mg/kg/injection, schedule: Q01DX005 (ip), vehicle: saline with Tween-80
[16] = dose: 200.0 mg/kg/injection, schedule: Q01DX009 (ip), vehicle: saline with Tween-80
[17] = dose: 25.0 mg/kg/injection, schedule: Q01DX009 (ip), vehicle: Klucel (hydroxypropylcellulose) (HPC)
[18] = dose: 200.0 mg/kg/injection, schedule: Q01DX005 (ip), vehicle: saline with Tween-80

Measured: T/C

NC(=Nc1ccc(Cl)cc1)N/N=C/c1ccc2c(c1)Cc1ccccc1-2
inactive: dose: 25.0 mg/kg/injection, schedule: Q04DX002 (ip), vehicle: saline with Tween-80 106 % of control | dose: 50.0 mg/kg/injection, schedule: Q04DX002 (ip), vehicle: saline with Tween-80 106 % of control | dose: 100.0 mg/kg/injection, schedule: Q04DX002 (ip), vehicle: saline with Tween-80 107 % of control

OCC[N-]CC[N-]CCO.[Cl][Co][Cl]
inactive: dose: 6.25 mg/kg/injection, schedule: Q01DX009 (ip), vehicle: saline 103 % of control | dose: 12.5 mg/kg/injection, schedule: Q01DX009 (ip), vehicle: saline 120 % of control | dose: 25.0 mg/kg/injection, schedule: Q01DX009 (ip), vehicle: saline 120 % of control | [1] 122 % of control | [2] 92 % of control

NC(=O)NC(C/[N+]([O-])=N/O)C(=O)O (centres undefined)
inactive: dose: 12.5 mg/kg/injection, schedule: Q01DX009 (ip), vehicle: water 100 % of control | dose: 25.0 mg/kg/injection, schedule: Q01DX009 (ip), vehicle: water 96 % of control | dose: 50.0 mg/kg/injection, schedule: Q01DX009 (ip), vehicle: water 98 % of control | dose: 100.0 mg/kg/injection, schedule: Q01DX009 (ip), vehicle: water 98 % of control

O=C1CCC(=O)N1CN(CS(=O)(=O)c1ccc(Cl)cc1)c1ccc(Cl)cc1
inactive: [3] 90 % of control | [4] 88 % of control | [5] 90 % of control

Cc1ccc(S(=O)(=O)N/N=C/c2c(C)noc2C)cc1
inactive: [6] 101 % of control | [7] 95 % of control | [8] 95 % of control

O=C(O)CSCSCC(=O)O
inactive: dose: 100.0 mg/kg/injection, schedule: Q04DX003 (ip), vehicle: saline 100 % of control | dose: 200.0 mg/kg/injection, schedule: Q04DX003 (ip), vehicle: saline 104 % of control

COc1ccc(CS(=O)(=O)c2cnc(=O)[nH]c2N)cc1OC
inactive: dose: 100.0 mg/kg/injection, schedule: Q04DX002 (ip), vehicle: saline 93 % of control | dose: 200.0 mg/kg/injection, schedule: Q04DX002 (ip), vehicle: saline 101 % of control | dose: 400.0 mg/kg/injection, schedule: Q04DX002 (ip), vehicle: saline 93 % of control

CC1=NN(C(=O)c2ccncc2)C(=O)C1N=Nc1ccc2ccccc2c1 (centres undefined)
inactive: [9] 101 % of control | [10] 102 % of control

CCOc1ccc(Cc2nc3c([nH]2)c(=O)n(C)c(=O)n3C)cc1OCC
inactive: [11] 104 % of control | [12] 103 % of control | dose: 200.0 mg/kg/injection, schedule: Q04DX003 (ip), vehicle: saline with Tween-80 113 % of control and 95 % of control

CC1/C(=N/O)C(=O)c2ccccc21 (centres undefined)
inactive: dose: 12.5 mg/kg/injection, schedule: Q01DX009 (ip), vehicle: saline with Tween-80 100 % of control | [13] 95 % of control | [9] 100 % of control

O=C(NC(COC1OC(CO)C(O)C(O)C1O)C(O)c1ccccc1)c1ccccc1 (centres undefined)
inactive: [6] 107 % of control | [1] 90 % of control | [7] 108 % of control | [2] 102 % of control | [8] 113 % of control | dose: 200.0 mg/kg/injection, schedule: Q01DX009 (ip), vehicle: saline 108 % of control

COC(=O)C1(c2cc3c(cc2OC)N(C)C2CCCCC32)CCCCCc2c1[nH]c1ccccc21 (centres undefined)
inactive: dose: 12.5 mg/kg/injection, schedule: Q01DX001 (ip), vehicle: distilled water + Tween-80 106 % of control | dose: 25.0 mg/kg/injection, schedule: Q01DX001 (ip), vehicle: distilled water + Tween-80 100 % of control | dose: 50.0 mg/kg/injection, schedule: Q01DX001 (ip), vehicle: distilled water + Tween-80 104 % of control | dose: 100.0 mg/kg/injection, schedule: Q01DX001 (ip), vehicle: distilled water + Tween-80 100 % of control | dose: 200.0 mg/kg/injection, schedule: Q01DX001 (ip), vehicle: distilled water + Tween-80 97 % of control

CCOC(=O)C1=C(N)C2CC(C)=C(C)CN2C1 (centres undefined)
inactive: [14] 98 % of control | [15] 100 % of control

C=C/C=C/NC(=O)N1CCCC1
inactive: dose: 100.0 mg/kg/injection, schedule: Q04DX002 (ip), vehicle: suspension in saline 102 % of control | dose: 200.0 mg/kg/injection, schedule: Q04DX002 (ip), vehicle: suspension in saline 102 % of control | dose: 400.0 mg/kg/injection, schedule: Q04DX002 (ip), vehicle: suspension in saline 105 % of control

COc1cc2c(c(OC)c1O)-c1ccc(SC)c(=O)cc1C(NC(C)=O)CC2 (centres undefined)
inactive: dose: 1.25 mg/kg/injection, schedule: Q01DX009 (ip), vehicle: saline 117 % of control

CCCCCCC(=O)/C=C/c1ccccc1OC(=O)c1ccc(Cl)cc1
inactive: [13] 101 % of control | [9] 88 % of control and 90 % of control | [10] 95 % of control | [16] 94 % of control

Nc1ncc(C2CO2)c(-c2ccccc2)n1 (centres undefined)
inactive: [17] 94 % of control | [6] 103 % of control | [7] 108 % of control

COc1ccc2nc(C#N)ccc2c1
inactive: [14] 92 % of control | [15] 90 % of control | [18] 95 % of control

COC1(OC)CCN2OC(CO)CC21 (centres undefined)
inactive: dose: 25.0 mg/kg/injection, schedule: Q04DX003 (ip), vehicle: saline with Tween-80 103 % of control | [11] 100 % of control | [12] 100 % of control and 101 % of control

C[N+]1(Cc2csc(-c3ccc(Cl)cc3)n2)CCOCC1
inactive: dose: 12.5 mg/kg/injection, schedule: Q01DX009 (ip), vehicle: Klucel (hydroxypropylcellulose) (HPC) 100 % of control and 106 % of control | [17] 113 % of control and 96 % of control | [6] 98 % of control and 108 % of control

COc1ccc2c(c1)sc1nc(Oc3ccccc3)nc(=O)n12
inactive: [6] 105 % of control | [7] 108 % of control | [8] 100 % of control

O=C1CCCSc2ccccc21
inactive: [13] 100 % of control | [9] 94 % of control | [10] 102 % of control | [16] 106 % of control

O=C1COc2ccc(F)cc2N1
inactive: [3] 102 % of control and 103 % of control | [4] 101 % of control and 96 % of control | [5] 101 % of control and 102 % of control

C/C(C#N)=C1/Nc2ccccc2NC1=O
inactive: dose: 25.0 mg/kg/injection, schedule: Q01DX009 (ip), vehicle: distilled water + Tween-80 + alcohol 95 % of control | dose: 50.0 mg/kg/injection, schedule: Q01DX009 (ip), vehicle: distilled water + Tween-80 + alcohol 88 % of control and 92 % of control | dose: 100.0 mg/kg/injection, schedule: Q01DX009 (ip), vehicle: distilled water + Tween-80 + alcohol 91 % of control | dose: 200.0 mg/kg/injection, schedule: Q01DX009 (ip), vehicle: distilled water + Tween-80 + alcohol 100 % of control

C1COCCCOCCCOCCCC2(CCCOCCCOC1)CO2
inactive: [14] 110 % of control | [15] 86 % of control | [18] 109 % of control

NP1(Oc2ccc(F)cc2)=NP(N)(Oc2ccc(F)cc2)=NP(Oc2ccc(F)cc2)(Oc2ccc(F)cc2)=N1 (centres undefined)
inactive: dose: 60.0 mg/kg/injection, schedule: Q01DX005 (ip), vehicle: saline with Tween-80 90 % of control | dose: 120.0 mg/kg/injection, schedule: Q01DX005 (ip), vehicle: saline with Tween-80 96 % of control | dose: 240.0 mg/kg/injection, schedule: Q01DX005 (ip), vehicle: saline with Tween-80 89 % of control
